Experimental data published in US20070082903A1, “Remedy for rheumatoid arthritis” (priority 2003, published 2007).

System: patients with rheumatoid arthritis
Assay: administration to patients with rheumatoid arthritis, ACR criterion evaluation at 16 weeks
Type: in vivo, human
Conditions: for improvement rate: SF-36 mental scale / improvement rate: SF-36 physical scale / improvement rate: erythrocyte sedimentation rate / improvement rate: patient's self-assessed physical functions / improvement rate: reduction of swollen joint count / improvement rate: reduction of tender joint count / improvement rate: patient's assessment of pain / improvement rate: patient's global assessment of disease activity / improvement rate: physician's global assessment of disease activity / improvement rate: CRP: 16 weeks vs initial value; for improvement rate: patient's assessment of pain / improvement rate: patient's global assessment of disease activity / improvement rate: physician's global assessment of disease activity: VAS; for improvement rate: CRP: in % (unit assumed)
Description: When 20% or more improvement is observed in the items 1) and 2) and 20% or more improvement is observed in at least three of the five items 3) to 7), the therapeutic effect is rated as “20% improvement on the criterion established by the American College of Rheumatology” (20% improvement on the ACR criterion). • 1) Reduction of tender joint count. • 2) Reduction of swollen joint count. • 3) Patient's global assessment of disease activity. • 4) Physician's global assessment of disease activity. • 5) Patient's assessment of pain. • 6) Patient's self-assessed physical functions. • 7) CRP or erythrocyte sedimentation rate.
Similarly, when 50% or more improvement is observed in the items 1) and 2) and 50% or more improvement is observed in at least three of the five items 3) to 7), the therapeutic effect is rated as “50% improvement on the criterion established by the American College of Rheumatology” (50% improvement on the ACR criterion).
SMP-114 was orally administered once a day after a meal to patients with rheumatoid arthritis who had been treated with 1 to 5 DMARDs other than SMP-114 (to whom these DMARDs seemed to be non-administrable because of their side effects, or for whom these DMARDs seemed to be ineffective or insufficiently effective). As to the dose, a placebo, 40 mg/day, 80 mg/day and 120 mg/day were employed (about 50 cases per group). […] SMP-114 was continuously administered to patients in whom the standard had been reached, until the 24th week while keeping the test blind. Sixteen weeks after the start of the administration, the placebo group, 40 mg/day group, 80 mg/day group and 120 mg/day group were compared with respect to the proportion of patients satisfying the requirement “20% improvement on the criterion established by the American College of Rheumatology”, whereby the efficacy of the SMP-114 was evaluated (in the present example, the following ratings were given on a visual analogue scale (VAS): 3) a patient's global assessment of disease activity, 4) a physician's global assessment of disease activity, and 5) a patient's assessment of pain, on the ACR criterion.).
When the following improvements are observed on the above-mentioned criterion of improvement established by the American College of Rheumatology, it is judged that “50% improvement on the criterion established by the American College of Rheumatology” (50% improvement on the ACR criterion) has been achieved: 50% or more improvement is observed in the items 1) and 2) and 50% or more improvement is observed in at least three of the five items 3) to 7). The efficacy of SMP-114 may be evaluated on the basis of the proportion of patients satisfying the requirement “50% improvement on the criterion established by the American College of Rheumatology”.
The efficacy of SMP-114 may be evaluated on the basis of improvement rates of the above-mentioned rating items on the criterion established by the American College of Rheumatology and QOL measure (SF-36) (Ware, J E. & Sherbourne C D., “The MOS 36-Item Short-Form Health Survey (SF-36); 1. Conceptual 10 Framework and Item Selection.”, Med Care 1981; 18:806). The improvement rates may be expressed as the rates of change calculated on the basis of the difference between values obtained 16 weeks after the start of the administration and initial values obtained before the start of the administration.
Stratification analysis was carried out by employing as an indication the history of treatment with disease modifying antirheumatic drugs (DMARDs) other than SMP-114, i.e., the number of the DMARDs other than SMP-114 which had been used. There are shown below the results of the analysis carried out by dividing patients into patients with rheumatoid arthritis who had been treated with one or two DMARDs other than SMP-114 (group A) and patients with rheumatoid arthritis who had been treated with 3 to 5 DMARDs other than SMP-114 (group B). […]

[1] = 40 mg/day, 16 weeks, erythrocyte sedimentation rate used as item 7)
[2] = 80 mg/day, 16 weeks, erythrocyte sedimentation rate used as item 7)
[3] = 120 mg/day, 16 weeks, erythrocyte sedimentation rate used as item 7)
[4] = total active groups, patient's assessment of pain (VAS) < 67
[5] = total active groups, patient's assessment of pain (VAS) ≧ 67
[6] = total active groups, physician's global assessment (VAS) < 63
[7] = total active groups, physician's global assessment (VAS) ≧ 63

Compound: C[C@@H](c1ccc(-c2ccccc2)c(F)c1)c1cc(/N=C(/N)N2CCOCC2)on1 [SMP-114, 3-[(1S)-1-(2-fluorobiphenyl-4-yl)ethyl]-5-{[amino(morpholin-4-yl)methylene]amino}isoxazole]
- improvement rate: SF-36 mental scale (40 mg/day): 43.7%
- improvement rate: SF-36 physical scale (40 mg/day): 33.3%
- improvement rate: erythrocyte sedimentation rate (40 mg/day): 3.2%
- improvement rate: patient's self-assessed physical functions (40 mg/day): 4.3%
- improvement rate: reduction of swollen joint count (40 mg/day): 22.3%
- improvement rate: reduction of tender joint count (40 mg/day): 16.0%
- improvement rate: patient's assessment of pain (40 mg/day): 17.1%
- improvement rate: patient's global assessment of disease activity (40 mg/day): 19.3%
- improvement rate: physician's global assessment of disease activity (40 mg/day): 12.7%
- improvement rate: CRP (40 mg/day): −12.3
- ACR20 improvement rate (40 mg/day, 16 weeks, CRP used as item 7)): 38.2%
- ACR20 improvement rate [1]: 38.2%
- ACR50 improvement rate [1]: 10.9%
- Number of ACR50 responders (40 mg/day, 55 patients): 6
- Number of ACR20 responders (40 mg/day, 55 patients, CRP used): 21
- Number of ACR20 responders (40 mg/day, 55 patients, erythrocyte sedimentation rate used): 21
- improvement rate: SF-36 mental scale (80 mg/day): 46.1%
- improvement rate: SF-36 physical scale (80 mg/day): 28.8%
- improvement rate: erythrocyte sedimentation rate (80 mg/day): 4.0%
- improvement rate: patient's self-assessed physical functions (80 mg/day): 10.6%
- improvement rate: reduction of swollen joint count (80 mg/day): 18.7%
- improvement rate: reduction of tender joint count (80 mg/day): 27.6%
- improvement rate: patient's assessment of pain (80 mg/day): 16.5%
- improvement rate: patient's global assessment of disease activity (80 mg/day): 20.5%
- improvement rate: physician's global assessment of disease activity (80 mg/day): 21.5%
- improvement rate: CRP (80 mg/day): −26.4
- ACR20 improvement rate (80 mg/day, 16 weeks, CRP used as item 7)): 34.5%
- ACR20 improvement rate [2]: 36.4%
- ACR50 improvement rate [2]: 10.9%
- Number of ACR50 responders (80 mg/day, 55 patients): 6
- Number of ACR20 responders (80 mg/day, 55 patients, CRP used): 19
- Number of ACR20 responders (80 mg/day, 55 patients, erythrocyte sedimentation rate used): 20
- improvement rate: SF-36 mental scale (120 mg/day): 44.8%
- improvement rate: SF-36 physical scale (120 mg/day): 30.2%
- improvement rate: erythrocyte sedimentation rate (120 mg/day): −7.5%
- improvement rate: patient's self-assessed physical functions (120 mg/day): −8.7%
- improvement rate: reduction of swollen joint count (120 mg/day): 19.7%
- improvement rate: reduction of tender joint count (120 mg/day): 22.7%
- improvement rate: patient's assessment of pain (120 mg/day): 17.1%
- improvement rate: patient's global assessment of disease activity (120 mg/day): 14.2%
- improvement rate: physician's global assessment of disease activity (120 mg/day): 24.1%
- improvement rate: CRP (120 mg/day): −98.6
- ACR20 improvement rate (120 mg/day, 16 weeks, CRP used as item 7)): 37.0%
- ACR20 improvement rate [3]: 37.0%
- ACR50 improvement rate [3]: 13.0%
- Number of ACR50 responders (120 mg/day, 54 patients): 7
- Number of ACR20 responders (120 mg/day, 54 patients, CRP used): 20
- Number of ACR20 responders (120 mg/day, 54 patients, erythrocyte sedimentation rate used): 20
- ACR20 improvement rate (total active groups (40, 80, 120 mg/day), Group A, DMARDs treatment history = 1-2 drugs): 44%
- ACR20 improvement rate (total active groups (40, 80, 120 mg/day), Group B, DMARDs treatment history = 3-5 drugs): 32%
- ACR20 responders / cases (total active groups, Group A, DMARDs treatment history = 1-2 drugs): 32/72
- ACR20 responders / cases (total active groups, Group B, DMARDs treatment history = 3-5 drugs): 29/92
- ACR20 improvement rate [4]: 50%
- ACR20 responders / cases [4]: 36/72
- ACR20 improvement rate [5]: 27%
- ACR20 responders / cases [5]: 25/92
- ACR20 improvement rate [6]: 42%
- ACR20 responders / cases [6]: 31/74
- ACR20 improvement rate [7]: 33%
- ACR20 responders / cases [7]: 30/90
